What was measured:
[1] = Viscosity responsiveness: fluorescence emission spectra of probes in glycerol and methanol; format: physicochemical; conditions: for Emission wavelength: excited at maximum excitation wavelength of each probe; for Fluorescence ratio in glycerol to methanol: probe 1×10^−5 M
Procedure, shortened: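 Each probe, from a 1×10^−2 M DMSO stock, was diluted to a final 1×10^−5 M in glycerol and in methanol. Fluorescence emission spectra were then recorded under identical conditions at each probe's maximum excitation wavelength.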

[2] = Fluorescence of free probe prior to binding to a protein tag; format: physicochemical
[3] = molecular target: T1, SNAP protein tags (Homo sapiens, UniProt P16455, A127T/A154D/C150Q/C62A/E30R/G131K/G132T/G153L/K125A/K32I/L33F/M134L/N157G/Q115S/Q116H/R128A/R135S/S151G/S152D/S159E); test: Fluorescence activation of probe after incubation with corresponding protein tag (SNAP); format: biochemical; conditions: probe 5 μM, protein tag 10 μM, 37° C., 1 hr
T1 sequence (P16455 1-182 E30R/K32I/L33F/C62A/Q115S/Q116H/K125A/A127T/R128A/G131K/G132T/M134L/R135S/C150Q/S151G/S152D/G153L/A154D/N157G/S159E): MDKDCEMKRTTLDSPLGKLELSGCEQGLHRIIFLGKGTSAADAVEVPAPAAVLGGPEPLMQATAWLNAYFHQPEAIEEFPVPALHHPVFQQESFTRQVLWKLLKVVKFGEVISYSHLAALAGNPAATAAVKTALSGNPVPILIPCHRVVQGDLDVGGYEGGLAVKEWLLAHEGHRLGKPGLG
Procedure, shortened: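 Probe (5 μM final) mixed with CLIP or SNAP protein tag (10 μM final) and incubated 1 hr at 37° C. Fluorescence intensity change measured by fluorescence spectrophotometer, with quantum yield of tag-bound probe determined.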

Row | Structure (SMILES) | Emission wavelength [1] [nm] | Fluorescence ratio in glycerol to methanol [1] | Quantum yield of free probe [2] | Fluorescence activation multiple [3] | Quantum yield of probe bound to protein tag [3]
1 | CN(C)c1ccc(-c2ccc(/C=C(\C#N)C(=O)NCc3ccc(COc4nc(N)nc5[nH]cnc45)cc3)s2)cc1 [Reference Probe 116, reference compound] | 620 | 125 | <0.001 | 29 | 0.01
2 | CN(CCOC(=O)NCc1ccc(COc2nc(N)nc3[nH]cnc23)cc1)c1cc2sc(/C=C(\C#N)C(=O)O)cc2s1 [probe 107] | 555 | 526 | <0.001 | 564 | 0.47
3 | N#C/C(=C\c1cc2c3c(c1)CCCN3CCC2)C(=O)NCC(=O)NCc1ccc(COc2nc(N)nc3[nH]cnc23)cc1 [Reference Probe BG-Gly-CCVJ, reference compound] |  | 260 | <0.001 | 60 | 
4 | CN(CCOC(=O)NCc1ccc(COc2nc(N)nc3[nH]cnc23)cc1)c1ccc2nc(/C=C(\C#N)C(=O)O)oc2c1 [probe 49] | 601 | 210 | <0.001 | 541 | 0.11
5 | CC1=CC(C)(C)N(CCOC(=O)NCc2ccc(COc3nc(N)nc4[nH]cnc34)cc2)c2ccc(/C=C(\C#N)C(=O)O)cc21 [probe 105] | 510 | 328 | <0.001 | 549 | 0.41
6 | CN(CCOC(=O)NCc1ccc(COc2nc(N)nc3[nH]cnc23)cc1)c1ccc2cc(/C=C(\C#N)c3nc4ccccc4s3)sc2c1 [probe 32] | 609 | 997 | <0.001 | 638 | 0.46
7 | CC(C)(C)OC(=O)/C(C#N)=C/c1ccc(N(CCO)CCOC(=O)NCc2ccc(COc3nc(N)nc4[nH]cnc34)cc2)cc1 [probe 10] | 482 | 655 | <0.001 | 431 | 0.39
8 | CN(CCOC(=O)NCc1ccc(COc2nccc(N)n2)cc1)c1ccc2c(c1)sc1cc(/C=C(/C#N)c3nc4ccccc4o3)sc12 [probe 65] | 650 | 391 | <0.001 | 798 | 0.66
9 | CN(CCOC(=O)NCc1ccc(COc2nc(N)nc3[nH]cnc23)cc1)c1ccc(C#C/C=C(\C#N)c2nc3ccccc3s2)cc1 [probe 59] | 600 | 370 | <0.001 | 498 | 0.39
10 | CN(C)c1ccc(-c2ccc(/C=C(\C#N)C(=O)NCc3ccc(COc4nc(N)nc5[nH]cnc45)cc3)s2)s1 [Reference Probe 119, reference compound] | 655 | 362 | <0.001 | 15 | 0.01
11 | CN(CCOC(=O)NCc1ccc(COc2cc(Cl)nc(N)n2)cc1)c1ccc2cc(/C=C(\C#N)C(=O)OC(C)(C)C)sc2c1 [probe 33] | 570 | 1781 | <0.001 | 957 | 0.55
12 | N#C/C(=C\c1ccc2c(c1)SCCN2CCO)C(=O)NCc1ccc(COc2nc(N)nc3[nH]cnc23)cc1 [Reference Probe 104, reference compound] | 515 | 351 | <0.001 | 23 | 0.02
